From US8846928B2 (Portola Pharmaceuticals, Inc., priority 2010, dated 2014)

Molecular target: T1, full length active recombinant SYK enzyme (Homo sapiens, UniProt P43405)
T1 construct: full length active recombinant SYK enzyme (Millipore, Calif.); purchased Millipore
Assay: Inhibition of Syk tyrosine phosphorylation activity (LANCE TR-FRET kinase assay)
Assay type: biochemical

| SMILES | IC50 |
| --- | --- |
| NC(=O)c1cc(F)c(N[C@@H]2CCCC[C@@H]2N)nc1Nc1cncnc1 [Example 152, 6-((1R,2S)-2-aminocyclohexylamino)-5-fluoro-2-(pyrimidin-5-ylamino)nicotinamide] | 100 to 1000 nM |
| NC(=O)c1cc(F)c(N[C@@H]2CCCC[C@@H]2N)nc1Nc1cncc(-n2cccn2)c1 [Example 155, 2-(5-(1H-pyrazol-1-yl)pyridin-3-ylamino)-6-((1R,2S)-2-aminocyclohexylamino)-5-fluoronicotinamide] | > 1000 nM |
| NC(=O)c1ccc(N[C@@H]2CCCC[C@@H]2N)nc1Nc1cncc(-c2ncccn2)c1 [Example 157, 6-((1R,2S)-2-aminocyclohexylamino)-2-(5-(pyrimidin-2-yl)pyridin-3-ylamino)nicotinamide] | 10 to 100 nM |
| NC(=O)c1cc(F)c(N[C@@H]2CCCC[C@@H]2N)nc1Nc1cncc(-n2ccnc2)c1 [Example 160] | 10 to 100 nM |
| COc1ncc(Nc2nc(N[C@@H]3CCCC[C@@H]3N)c(F)cc2C(N)=O)cn1 [Example 166, 6-((1R,2S)-2-aminocyclohexylamino)-5-fluoro-2-(2-methoxypyrimidin-5-ylamino)nicotinamide] | 100 to 1000 nM |
| NC(=O)c1cc(F)c(N[C@@H]2CCCC[C@@H]2N)nc1Nc1ccncc1 [Example 175] | 10 to 100 nM |
| NC(=O)c1cc(F)c(N[C@@H]2CCCC[C@@H]2N)nc1Nc1ccc(C(F)(F)F)nc1 [Example 176, 6-((1R,2S)-2-aminocyclohexylamino)-5-fluoro-2-(6-(trifluoromethyl)pyridin-3-ylamino)nicotinamide] | 10 to 100 nM |
| NC(=O)c1cc(F)c(N[C@@H]2CCCC[C@@H]2N)nc1Nc1cncs1 [Example 177, 6-((1R,2S)-2-aminocyclohexylamino)-5-fluoro-2-(thiazol-5-ylamino)nicotinamide] | > 1000 nM |
| NC(=O)c1cc(F)c(N[C@@H]2CCCC[C@@H]2N)nc1Nc1cnsc1 [Example 178, 6-((1R,2S)-2-aminocyclohexylamino)-5-fluoro-2-(isothiazol-4-ylamino)nicotinamide] | 10 to 100 nM |
| NC(=O)c1cc(F)c(N[C@@H]2CCCC[C@@H]2N)nc1Nc1ccnc(-n2cccn2)c1 [Example 190, 2-(2-(1H-pyrazol-1-yl)pyridin-4-ylamino)-6-((1R,2S)-2-aminocyclohexylamino)-5-fluoronicotinamide] | 10 to 100 nM |
| NC(=O)c1cc(F)c(N[C@@H](C(N)=O)C2CC2)nc1Nc1cnc2ccccc2c1 [Example 196, (R)-6-(2-amino-1-cyclopropyl-2-oxoethylamino)-5-fluoro-2-(quinolin-3-ylamino)nicotinamide] | 10 to 100 nM |
| Cc1cc(Nc2nc(N[C@@H](C(N)=O)C3CC3)c(F)cc2C(N)=O)sn1 [Example 198, (R)-6-(2-amino-1-cyclopropyl-2-oxoethylamino)-5-fluoro-2-(3-methylisothiazol-5-ylamino)nicotinamide] | 10 to 100 nM |
| CCC[C@@H](Nc1nc(Nc2ccc3ncccc3c2)c(C(N)=O)cc1F)C(N)=O [Example 200] | 10 to 100 nM |
| CCC[C@@H](Nc1nc(Nc2ccc3cccnc3c2)c(C(N)=O)cc1F)C(N)=O [Example 201, (R)-6-(1-amino-1-oxopentan-2-ylamino)-5-fluoro-2-(quinolin-7-ylamino)nicotinamide] | 100 to 1000 nM |
| CCC[C@@H](Nc1nc(Nc2cc(C)ns2)c(C(N)=O)cc1F)C(N)=O [Example 202, (R)-6-(1-amino-1-oxopentan-2-ylamino)-5-fluoro-2-(3-methylisothiazol-5-ylamino)nicotinamide] | 10 to 100 nM |
| CC[C@@H](Nc1ccc(C(N)=O)c(Nc2cnc3ccccc3c2)n1)C(N)=O [Example 203, (R)-6-(1-amino-1-oxobutan-2-ylamino)-2-(quinolin-3-ylamino)nicotinamide] | 1 to 10 nM |
| CC[C@@H](Nc1ccc(C(N)=O)c(Nc2ccc3cccnc3c2)n1)C(N)=O [Example 204, (R)-6-(1-amino-1-oxobutan-2-ylamino)-2-(quinolin-7-ylamino)nicotinamide] | 10 to 100 nM |

Further lines, results first:

| IC50 | SMILES |
| --- | --- |
| 1 to 10 nM | NC(=O)c1cc(F)c(N[C@@H]2CCCC[C@@H]2N)nc1Nc1cnc2ncccc2c1 [Example 150, 2-(1,8-naphthyridin-3-ylamino)-6-((1R,2S)-2-aminocyclohexylamino)-5-fluoronicotinamide] |
| 1 to 10 nM | NC(=O)c1cc(F)c(N[C@@H]2CCCC[C@@H]2N)nc1Nc1ccnc2ncccc12 [Example 151, 2-(1,8-naphthyridin-4-ylamino)-6-((1R,2S)-2-aminocyclohexylamino)-5-fluoronicotinamide] |
| 1 to 10 nM | Cn1cnc2cc(Nc3nc(N[C@@H]4CCCC[C@@H]4N)c(F)cc3C(N)=O)ccc21 [Example 153, 6-((1R,2S)-2-aminocyclohexylamino)-5-fluoro-2-(1-methyl-1H-benzo[d]imidazol-5-ylamino)nicotinamide] |
| 1 to 10 nM | NC(=O)c1cc(F)c(N[C@@H]2CCCC[C@@H]2N)nc1Nc1cncc(-n2nccn2)c1 [Example 154, 2-(5-(2H-1,2,3-triazol-2-yl)pyridin-3-ylamino)-6-((1R,2S)-2-aminocyclohexylamino)-5-fluoronicotinamide] |
| 1 to 10 nM | NC(=O)c1cc(F)c(N[C@@H]2CCCC[C@@H]2N)nc1Nc1cncc(-c2ncccn2)c1 [Example 156, 6-((1R,2S)-2-aminocyclohexylamino)-5-fluoro-2-(5-(pyrimidin-2-yl)pyridin-3-ylamino)nicotinamide] |
| 1 to 10 nM | NC(=O)c1ccc(N[C@@H]2CCCC[C@@H]2N)nc1Nc1cncc(-n2nccn2)c1 [Example 158] |
| 1 to 10 nM | NC(=O)c1ccc(N[C@@H]2CCCC[C@@H]2N)nc1Nc1cncc(-n2cccn2)c1 [Example 159, 2-(5-(1H-pyrazol-1-yl)pyridin-3-ylamino)-6-((1R,2S)-2-aminocyclohexylamino)nicotinamide] |
| 1 to 10 nM | NC(=O)c1ccc(N[C@@H]2CCCC[C@@H]2N)nc1Nc1cncc(-n2ccnc2)c1 [Example 161, 2-(5-(1H-imidazol-1-yl)pyridin-3-ylamino)-6-((1R,2S)-2-aminocyclohexylamino)nicotinamide] |
| 1 to 10 nM | NC(=O)c1cc(F)c(N[C@@H]2CCCC[C@@H]2N)nc1Nc1cncc(-c2nccs2)c1 [Example 162, 6-((1R,2S)-2-aminocyclohexylamino)-5-fluoro-2-(5-(thiazol-2-yl)pyridin-3-ylamino)nicotinamide] |
| 1 to 10 nM | NC(=O)c1ccc(N[C@@H]2CCCC[C@@H]2N)nc1Nc1cncc(-c2nccs2)c1 [Example 163] |
| 1 to 10 nM | COc1cncc(Nc2nc(N[C@@H]3CCCC[C@@H]3N)ccc2C(N)=O)c1 [Example 164] |
| 1 to 10 nM | NC(=O)c1ccc(N[C@@H]2CCCC[C@@H]2N)nc1Nc1cnc2ncccc2c1 [Example 165] |
| 1 to 10 nM | NC(=O)c1cc(F)c(N[C@@H]2CCCC[C@@H]2N)nc1Nc1cccnc1 [Example 174, 6-((1R,2S)-2-aminocyclohexylamino)-5-fluoro-2-(pyridin-3-ylamino)nicotinamide] |
| 1 to 10 nM | NC(=O)c1ccc(N[C@@H]2CCCC[C@@H]2N)nc1Nc1cncc(F)c1 [Example 179] |
| 1 to 10 nM | NC(=O)c1ccc(N[C@@H]2CCCC[C@@H]2N)nc1Nc1cccnc1 [Example 180, 6-((1R,2S)-2-aminocyclohexylamino)-2-(pyridin-3-ylamino)nicotinamide] |
| 1 to 10 nM | NC(=O)c1ccc(N[C@@H]2CCCC[C@@H]2N)nc1Nc1ccncc1 [Example 181, 6-((1R,2S)-2-aminocyclohexylamino)-2-(pyridin-4-ylamino)nicotinamide] |
| 1 to 10 nM | Cc1cc(Nc2nc(N[C@@H]3CCCC[C@@H]3N)ccc2C(N)=O)sn1 [Example 182, 6-((1R,2S)-2-aminocyclohexylamino)-2-(3-methylisothiazol-5-ylamino)nicotinamide] |
| 1 to 10 nM | NC(=O)c1cc(F)c(N[C@@H]2CCCC[C@@H]2N)nc1Nc1cnc2cccnc2c1 [Example 183, 2-(1,5-naphthyridin-3-ylamino)-6-((1R,2S)-2-aminocyclohexylamino)-5-fluoronicotinamide] |
| 1 to 10 nM | NC(=O)c1ccc(N[C@@H]2CCCC[C@@H]2N)nc1Nc1cnc2cccnc2c1 [Example 184] |
| 1 to 10 nM | NC(=O)c1ccc(N[C@@H]2CCCC[C@@H]2N)nc1Nc1cnc2ccccc2c1 [Example 185, 6-((1R,2S)-2-aminocyclohexylamino)-2-(quinolin-3-ylamino)nicotinamide] |
| 1 to 10 nM | NC(=O)c1ccc(N[C@@H]2CCCC[C@@H]2N)nc1Nc1ccc2cccnc2c1 [Example 186, 6-((1R,2S)-2-aminocyclohexylamino)-2-(quinolin-7-ylamino)nicotinamide] |
| 1 to 10 nM | NC(=O)c1cc(F)c(N[C@@H]2CCCC[C@@H]2N)nc1Nc1cccc(-n2cccc2)c1 [Example 187, 2-(3-(1H-pyrrol-1-yl)phenylamino)-6-((1R,2S)-2-aminocyclohexylamino)-5-fluoronicotinamide] |
| 1 to 10 nM | NC(=O)c1cc(F)c(N[C@@H]2CCCC[C@@H]2N)nc1Nc1ccc(-n2cccc2)cc1 [Example 188, 2-(4-(1H-pyrrol-1-yl)phenylamino)-6-((1R,2S)-2-aminocyclohexylamino)-5-fluoronicotinamide] |
| 1 to 10 nM | NC(=O)c1cc(F)c(N[C@@H]2CCCC[C@@H]2N)nc1Nc1cccc(-c2nccs2)c1 [Example 189, 6-((1R,2S)-2-aminocyclohexylamino)-5-fluoro-2-(3-(thiazol-2-yl)phenylamino)nicotinamide] |
| 1 to 10 nM | NC(=O)c1ccc(N[C@@H]2CCCC[C@@H]2N)nc1Nc1cccc(-n2cccn2)c1 [Example 192, 2-(3-(1H-pyrazol-1-yl)phenylamino)-6-((1R,2S)-2-aminocyclohexylamino)nicotinamide] |
| 1 to 10 nM | CCC[C@@H](Nc1nc(Nc2cnc3ccccc3c2)c(C(N)=O)cc1F)C(N)=O [Example 199, (R)-6-(1-amino-1-oxopentan-2-ylamino)-5-fluoro-2-(quinolin-3-ylamino)nicotinamide] |
